Laboratory results from patent publication US20110182949A1, “STABILIZED TRANSDERMAL DRUG DELIVERY SYSTEM” (priority 2008, published 2011).

Assay: Glass transition temperature (DSC)
Type: physicochemical
Conditions: amorphous drug, dispersed in patch or undispersed
Description: Example 1: To a glass jar Plastone 29/32 (12 g) and ethanol (7.56 g) were added. The admixture was mixed with a spatula, heated and sonicated in a water bath at 45° C. until a viscous solution was formed. To the solution was added scopolamine base (4.00 g). The admixture was mixed with a spatula, heated, sonicated and swirled until a clear viscous solution was formed. After the solution was cooled for a while, Dow Corning silicone adhesive 7-4302 (40.82 g, 60% solid) and ethyl acetate (8.34 g) were added. The material was quickly mixed at high shear to provide a cream-like uniform suspension. After air bubbles were removed by rolling overnight, the suspension was coated to a release liner, dried at room temperature for 5 minutes, in an oven set at 40° C. for 5 minutes and in an oven set at 85° C. for 5 minutes to form a thin layer of adhesive on release liner. A backing film Mediflex® 1502 was laminated to the adhesive side. Individual patches were die-cut and pouched.

Row | Compound | glass transition temperature (Tg)
1 | O=C1CC[C@@]2(O)[C@H]3Cc4ccc(O)c5c4[C@@]2(CCN3CC2CC2)[C@H]1O5 [naltrexone] | 79.5 °C
2 | CN1[C@@H]2C[C@@H](OC(=O)[C@H](CO)c3ccccc3)C[C@H]1[C@@H]1O[C@@H]12 [undispersed amorphous scopolamine, scopolamine] | about 10 °C
